# Paper PMC3486420, “In Vitro and In Vivo Characterizations of Chiglitazar, a Newly Identified PPAR Pan-Agonist” (PPAR Research, 2012)
# What was measured:
# SMMC-7721 cells = experiment: Gene expression by RT-PCR in SMMC-7721 cells; assay type: cell-based, human; conditions: 48 h, 10 μM rosiglitazone, 10 μM chiglitazar; for Expression of LDL receptor (LDLR): 50 μM WY14643, 5 μM 2-Bro
# Source text: (§1) cDNAs for human retinoid X receptor (hRXR), PPARα, PPARγ, and PPARδ were obtained by reverse transcriptase polymerase chain reaction (RT-PCR) from human liver or adipose tissues. Amplified cDNAs were cloned into pcDNA3.1 expression vector (Invitrogen, Carlsbad, CA, USA). The integrity and fidelity of all constructs made were verified by DNA sequencing. Luciferase reporter plasmids, ACOX promoter for PPARγ and pHD(X3)-luc for PPARα, were kind gifts of Drs. TM McIntyre (University of Utah, USA) and RA Rachubinski (University of Alberta, Canada), respectively. PPRE-luc for PPARδ was constructed based on the previous report by insertion of the annealed oligonucleotides having four copies of the CYP4A6 PPRE (4 × […]) into the upstream of the luciferase coding sequence in pGL3-promoter vector (Promega, Madison, WI, USA). pCMVβGal was purchased from Clontech (Palo Alto, CA, USA). The mouse 3T3-L1 preadipocyte cell line, skeletal muscle C2C12 cell line, and macrophage RAW267.4 cell line and the human osteosarcoma U2OS cell line were obtained from the American Type Culture Collection (ATCC, Rockville, MD, USA). The human hepatoma SMMC-7721 cell line was obtained from the Cell Culture Center of Chinese Academy of Medical Sciences (Beijing, China). Cell lines were cultured in medium of DMEM (3T3-L1, C2C12, and SMMC-7721), RPMI 1640 (RAW267.4), or McCoy's 5A (U2OS), containing 10% fetal bovine serum (FBS), 50 μg/mL streptomycin, and 50 units/mL penicillin at 37°C in a humidified incubator with 5% CO2.
# (§2) Total RNA was extracted from cells or tissues with an RNeasy minikit (Qiagen, Valencia, CA, USA). The first-strand cDNA was synthesized using the oligo(dT) primers, followed by using SuperScript II reverse transcriptase (Invitrogen) according to the manufacturer's instructions. The PCR amplifications were performed in 10 μL of reaction mixture volume containing 0.8 μL of cDNA, 10 mM Tris-HCl (pH 8.3), 50 mM KCl, 1.5 mM MgCl2, 0.1% Triton X-100, 0.2 mM deoxynucleotide triphosphates, 0.4 μM primers, and 0.25 U of Taq polymerase (TaKaRa Biotechnology Co., Ltd, China). Taq DNA polymerase was added to each tube after a treatment of 2 min at 94°C. This was followed by 22–30 cycles of denaturation (23 s at 94°C), annealing (20 s at 55°C), extension (30 s at 72°C), and a final extension step of 2 min. PCR products were analyzed by electrophoresis on a 1.5% agarose gel stained with ethidium bromide.
# (§3) Figure 1 In vitro regulation of gene expression by chiglitazar. (a) Endogenous expression of individual PPAR subtypes in cell lines. […]. The expression change of referred genes induced by different compounds was normalized against internal control (36B4 or GAPDH) and then compared with vehicle control treatment. The data shown are averaged from 3 independent experiments.
# RAW267.4 cells = experiment: Gene expression by RT-PCR in RAW267.4 cells; assay type: cell-based, mouse; conditions: 48 h, 10 μM chiglitazar; for Expression of PPARα and/or PPARδ downstream gene SRA: 50 μM WY14643, 5 μM 2-Bro, compared with rosiglitazone 10 μM
# Source text: as §1, §2, §3
# PPARα [1] = biological target: T1, PPARα (Homo sapiens, UniProt Q07869); experiment: PPARα transactivation reporter gene assay in U2OS cells; assay type: cell-based
# T1 sequence (Q07869 1-468): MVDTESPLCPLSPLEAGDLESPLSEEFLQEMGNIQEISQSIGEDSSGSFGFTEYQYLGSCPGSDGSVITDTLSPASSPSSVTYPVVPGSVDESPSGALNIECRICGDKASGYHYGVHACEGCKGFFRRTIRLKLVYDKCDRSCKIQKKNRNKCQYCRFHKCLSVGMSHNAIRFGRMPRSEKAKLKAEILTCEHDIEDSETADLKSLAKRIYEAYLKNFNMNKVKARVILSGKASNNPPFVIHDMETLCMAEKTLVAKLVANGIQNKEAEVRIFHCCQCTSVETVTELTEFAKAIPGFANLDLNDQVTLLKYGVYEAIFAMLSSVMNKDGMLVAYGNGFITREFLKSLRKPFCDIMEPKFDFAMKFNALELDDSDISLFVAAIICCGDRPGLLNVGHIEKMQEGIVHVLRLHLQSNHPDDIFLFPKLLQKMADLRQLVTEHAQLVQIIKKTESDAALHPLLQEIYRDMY
# T1 sequence (P19793 1-462 partner): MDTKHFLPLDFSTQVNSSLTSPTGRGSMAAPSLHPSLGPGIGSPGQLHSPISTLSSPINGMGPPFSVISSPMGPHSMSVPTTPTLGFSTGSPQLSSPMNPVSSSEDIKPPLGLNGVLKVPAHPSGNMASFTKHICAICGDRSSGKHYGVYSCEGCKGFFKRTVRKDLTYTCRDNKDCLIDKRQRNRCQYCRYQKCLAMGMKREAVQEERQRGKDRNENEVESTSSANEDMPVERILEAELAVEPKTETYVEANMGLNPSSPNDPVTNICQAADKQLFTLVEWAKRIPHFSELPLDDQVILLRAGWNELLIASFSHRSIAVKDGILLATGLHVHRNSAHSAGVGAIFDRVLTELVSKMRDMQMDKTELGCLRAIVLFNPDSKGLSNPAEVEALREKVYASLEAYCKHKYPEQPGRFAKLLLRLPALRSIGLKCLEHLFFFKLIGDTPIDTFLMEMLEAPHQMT
# PPARα [2] = biological target: T1, PPARα; experiment: PPARα transactivation reporter gene assay in SMMC-7721 cells; assay type: cell-based
# C2C12 cells = experiment: Gene expression by RT-PCR in C2C12 cells; assay type: cell-based, mouse; conditions: 48 h, 10 μM chiglitazar, 50 μM WY14643, 5 μM 2-Bro, compared with rosiglitazone 10 μM
# Source text: as §1
# Total RNA was extracted from cells or tissues with an RNeasy minikit (Qiagen, Valencia, CA, USA). The first-strand cDNA was synthesized using the oligo(dT) primers, followed by using SuperScript II reverse transcriptase (Invitrogen) according to the manufacturer's instructions. […] PCR products were analyzed by electrophoresis on a 1.5% agarose gel stained with ethidium bromide. […]
# rats = test system: rats; design: method as in earlier work; conditions: same length of treatment (6 months) ref 44, 45; cited from earlier work
# KKAy mice = experiment: Gene expression by RT-PCR in tissues of treated KKAy mice; assay type: in vivo, mouse; conditions: 12 days oral
# Method: as §2
# Male db/db mice (BKS.Cg-m +/+ LEPR^db) in 6-7 weeks were purchased from The Jackson Laboratory (Bar Harbor, ME, USA). Male KKAy and C57BL/6J mice in 8–10 weeks were obtained from the Institute of Animal Science, Chinese Academy of Medical Sciences and Peking Union Medical College (Beijing, China). Animals were randomly sorted into different treatment groups (8–10 per group). […]. Plasma glucose levels were examined at various time points by Accu-Chek Advantage II Glucose Strips (Roche Diagnostics, Basel, Switzerland) and measured by Accu-Chek Advantage (Roche Diagnostics). Animals were sacrificed 24 h after the last dosing and abdominal fat pad, liver, and skeletal muscle from KKAy mice and abdominal fat pad from db/db mice were taken for gene expression analysis.
# Figure 3 In vivo regulation of gene expression by chiglitazar. […]. Equal amount of total RNA from each mouse in the same group was mixed and subjected to RT-PCR analysis for the indicated genes. […]. Total RNA was isolated from individual animal tissues and subjected to the RT-PCR analysis independently for the indicated genes.
# 3T3-L1 cells = experiment: Gene expression by RT-PCR in 3T3-L1 cells; assay type: cell-based, mouse; conditions: 48 h, 10 μM rosiglitazone, 10 μM chiglitazar, vs vehicle
# Source text: as §1, with “The human hepatoma SMMC-7721 cell line was obtained from the Cell Culture Center of Chinese Academy of Medical Sciences (Beijing, China). Cell lines were cultured in medium of DMEM (3T3-L1, C2C12, and SMMC-7721), RPMI 1640 (RAW267.4), or McCoy's 5A (U2OS), containing 10% fetal bovine serum (FBS), 50 μg/mL streptomycin, and 50 units/mL penicillin at 37°C in a humidified incubator with 5% CO2.” left out
# Total RNA was extracted from cells or tissues with an RNeasy minikit (Qiagen, Valencia, CA, USA). […] PCR products were analyzed by electrophoresis on a 1.5% agarose gel stained with ethidium bromide. […]
# PPARγ [3] = biological target: T2, PPARγ (Homo sapiens, UniProt P37231); experiment: PPARγ transactivation reporter gene assay in SMMC-7721 cells; assay type: cell-based
# T2 construct: expressed in transfected cells; host or cells: SMMC-7721 or U2OS
# T2 sequence (P37231 1-505): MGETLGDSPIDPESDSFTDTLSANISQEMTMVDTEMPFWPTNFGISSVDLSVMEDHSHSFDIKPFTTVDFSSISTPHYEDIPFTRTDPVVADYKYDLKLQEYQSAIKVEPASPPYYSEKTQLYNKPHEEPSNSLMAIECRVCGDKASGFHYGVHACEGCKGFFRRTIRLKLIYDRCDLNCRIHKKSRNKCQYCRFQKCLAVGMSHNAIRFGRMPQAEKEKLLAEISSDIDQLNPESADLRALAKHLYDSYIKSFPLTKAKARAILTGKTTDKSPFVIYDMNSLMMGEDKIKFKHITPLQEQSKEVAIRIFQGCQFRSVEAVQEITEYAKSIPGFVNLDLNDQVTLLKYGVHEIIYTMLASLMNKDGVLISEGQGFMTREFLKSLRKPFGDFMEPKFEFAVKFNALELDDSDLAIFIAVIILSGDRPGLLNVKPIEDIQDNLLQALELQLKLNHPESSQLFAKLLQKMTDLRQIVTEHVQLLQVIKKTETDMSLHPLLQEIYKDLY
# T2 sequence (P19793 1-462 partner): T1 sequence (P19793 1-462 partner)
# PPARδ [4] = biological target: T3, PPARδ (Homo sapiens, UniProt Q03181); experiment: PPARδ transactivation reporter gene assay in SMMC-7721 cells; assay type: cell-based
# T3 construct: expressed in transfected cells; host or cells: SMMC-7721 or U2OS
# T3 sequence (Q03181 1-441): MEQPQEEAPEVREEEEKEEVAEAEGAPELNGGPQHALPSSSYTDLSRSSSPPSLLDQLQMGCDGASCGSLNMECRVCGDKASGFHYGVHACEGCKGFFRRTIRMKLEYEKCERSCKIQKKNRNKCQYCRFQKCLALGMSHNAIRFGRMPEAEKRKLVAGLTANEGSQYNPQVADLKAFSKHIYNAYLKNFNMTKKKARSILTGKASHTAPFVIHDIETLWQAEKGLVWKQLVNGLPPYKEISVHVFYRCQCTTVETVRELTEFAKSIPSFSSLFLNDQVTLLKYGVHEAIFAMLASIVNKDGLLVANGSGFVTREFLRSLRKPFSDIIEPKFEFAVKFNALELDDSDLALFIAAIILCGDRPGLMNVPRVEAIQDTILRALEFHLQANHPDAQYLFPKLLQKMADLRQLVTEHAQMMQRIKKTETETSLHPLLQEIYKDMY
# T3 sequence (P19793 1-462 partner): T1 sequence (P19793 1-462 partner)
# PPARδ [5] = biological target: T3, PPARδ; experiment: PPARδ transactivation reporter gene assay in U2OS cells; assay type: cell-based
# PPARγ [6] = biological target: T2, PPARγ; experiment: PPARγ transactivation reporter gene assay in U2OS cells; assay type: cell-based; conditions: 24 h treatment, luciferase reporter, hRXR cotransfected, ia: inactive at 10 μM
# [7] = max response compared with WY at 50 μM
# [8] = chiglitazar 20 mg kg^−1, rosiglitazone 5 mg kg^−1
# [9] = 24 h treatment, luciferase reporter, hRXR cotransfected, ia: inactive at 10 μM
smiles,measurement,setting,value
"Cc1cccc(Nc2cc(Cl)nc(SCC(=O)O)n2)c1C [WY, WY14643]",Expression of LDL receptor (LDLR),SMMC-7721 cells,downregulated
same,Expression of PPARα and/or PPARδ downstream gene SRA,RAW267.4 cells,more significantly upregulated
same,PPARα % Max,PPARα [1]; [7],100%
same,PPARα % Max,PPARα [2]; [7],100%
same,Expression of PPARα and/or PPARδ downstream genes CPT-1a and CPT-1b,C2C12 cells,more significantly upregulated
"CN(CCOc1ccc(CC2SC(=O)NC2=O)cc1)c1ccccn1 (centres unmarked) [Ros, rosiglitazone, reference compound]","Expression of PPARγ downstream genes AOX, LIPC and HSL",SMMC-7721 cells; vs vehicle,upregulated
same,Expression of LDL receptor (LDLR),SMMC-7721 cells,downregulated
same,Dose observed to induce heart weight increase,rats,5 mg/kg
same,Expression of PPARγ downstream gene CD36,"RAW267.4 cells; 10 μM rosiglitazone, vs vehicle",upregulated
same,"Expression of ACADL, HSL, GLUT4 and PPARγ in liver and skeletal muscle",KKAy mice; [8],not affected
same,Expression of genes involved in PPARγ-mediated insulin sensitization in adipose tissue,KKAy mice; [8],almost identically up-regulated
same,Expression of Adiponectin and CD36 in liver and skeletal muscle,KKAy mice; rosiglitazone 5 mg kg^−1 vs chiglitazar 20 mg kg^−1,more upregulated
same,Expression of PPARγ downstream genes SREBP1 and adiponectin,3T3-L1 cells,upregulated
"CCc1ccc(CCOc2ccc(CC3SC(=O)NC3=O)cc2)nc1 (centres unmarked) [Pio, pioglitazone]",Dose observed to induce heart weight increase,rats,4 mg/kg
"CCCCCCCCCCCCCCC(Br)C(=O)O (centres unmarked) [2-Bro, 2-bromohexadecanoic acid, reference compound]",Expression of LDL receptor (LDLR),SMMC-7721 cells,significantly upregulated
same,EC50,PPARγ [3],5.5 ± 1.7 µM
same,PPARγ % Max,"PPARγ [3]; SMMC-7721 cells, max response compared with Ros at 1 μM",14%
same,Expression of PPARα and/or PPARδ downstream gene SRA,RAW267.4 cells,more significantly upregulated
same,EC50,PPARδ [4],5.1 ± 0.9 µM
same,PPARδ % Max,"PPARδ [4]; SMMC-7721 cells, max response compared with 2-Bro at 10 μM",100%
same,PPARα EC50,PPARα [1]; [9],ia
same,PPARα EC50,PPARα [2]; [9],ia^2
same,EC50,PPARδ [5],9.2 ± 0.8 µM
same,PPARδ % Max,"PPARδ [5]; U2OS cells, max response compared with 2-Bro at 10 μM",100%
same,Expression of PPARα and/or PPARδ downstream genes CPT-1a and CPT-1b,C2C12 cells,more significantly upregulated
same,PPARγ EC50,PPARγ [6],ia
